From a melting point compilation (Tetko et al.; mined from patent text by program, amines drawn as free bases though some values may be those of a salt)

SMILES	melting point
CC(C(=O)O)=C1CCC2C3CCC4=CC(=O)CCC4(C)C3CCC12C (stereo unspecified)	266 to 270 °C
Brc1cn2ccsc2n1	96 to 98 °C
COc1cccc(C(=O)Nc2ccc(N3CCOCC3)cc2C(C)=O)c1OC	146 to 148 °C
CC1(C)COC(c2ccccc2-c2ccc(C(=O)O)cc2)=N1	190 to 193 °C
CSC1=Nc2ccccc2C(=O)N(C)C1c1ccccc1 (stereo unspecified)	130 to 132 °C
NS(=O)(=O)Oc1ccccc1	81 to 85 °C
Cc1cccc(C2(c3ccc(F)c(-c4ccc(NC(=O)NN5CCOCC5)cc4)c3)CNC(C(C)C)=N2)n1 (stereo unspecified)	141 to 143 °C
Nc1nc2c(ncn2Cc2ccoc2)c(=O)[nH]1	308 to 310 °C
COCc1noc(-c2ncn3c2[C@@H]2CCCN2C(=O)c2c(Cl)cccc2-3)n1	168 to 170 °C
CSc1ccc(C(=O)NCc2ccc3c(c2)C(=O)N(C2(C)CCC(=O)NC2=O)C3=O)nc1 (stereo unspecified)	210 to 212 °C
CCCCCCCNC(=O)Nc1ccc(-n2nc(C(F)(F)F)cc2C(F)(F)F)cc1	129 to 130 °C
CNC(=O)N1CCC(Oc2ccc([N+](=O)[O-])cc2)(c2ccccc2)CC1	110 to 115 °C
CCOC(=O)c1c(CCO)nc2cc(OC)c(OC)cc2c1-c1ccc(OC)c(OC)c1	150 to 151 °C
O=C(O)c1ccc(S(=O)(=O)c2ccccc2)cc1	128 to 132 °C
Cc1cc(-c2ccc(Cl)cc2)nc(-n2cnc(-c3cccc(S(C)(=O)=O)c3)c2)n1	233 °C
CCc1cccc(CC)c1NC(=NCc1cccc(CCl)c1)Nc1c(CC)cccc1CC	83.5 to 86.5 °C
O=C(N1CCC(n2c(=O)[nH]c3ncccc32)CC1)n1ccnc1	226 °C
O=C(O)C(CCO)N1CCCC1=O (stereo unspecified)	123 to 124 °C
CC1=C(C(=S)Cc2ccccc2)C(c2ccccc2)C2=C(N1)c1ccccc1C2=O (stereo unspecified)	226 to 228 °C
Cc1cc2c(cnn2-c2c(Cl)cc(C(F)(F)F)cc2Cl)nc1C	135 to 136 °C
CCOC(=O)COc1ccc(C(=O)Nc2cccc(F)c2Sc2ccccc2-c2nnn[nH]2)cc1	208 to 209 °C
COc1ccccc1[C@H](c1cccc2ccccc12)[C@@](C)(C#N)C(=O)N1CC=C(c2ccc(Cl)cc2)CC1	118 to 122 °C
COc1ccc(-c2cc(=O)[nH]cn2)cc1OC	248 to 249 °C
O=C(Cn1c(=O)sc2ncc(Cl)cc21)N1CCN(CCO)CC1	198 to 200 °C
CCOCCOc1cc(-n2nc(C)c(Cl)c2C)c(F)cc1C#N	86 °C
CC(=O)N1CCC(N2C(=O)CN=C(c3ccccc3)c3ccccc32)CC1	208 to 209 °C

SMILES	melting point
CC(=O)Nc1nc(C=O)cs1	196 to 199 °C
CCOc1cnn(-c2cc(-c3ccnc(Nc4cccc(Cl)c4)n3)ccn2)c(=O)c1Cl	196 to 198 °C
CC(C)Oc1cc(CCCOc2nn(C)cc2CC(=O)O)n(Cc2ccc(Cl)cc2Cl)n1	96 to 97 °C
COc1cc2nc(N3CCc4c(cccc4-c4cnccc4N)C3)[nH]c(=O)c2cc1OC	> 300 °C
COc1ccc(-c2oncc2CO)cc1OC	83 to 84 °C
CCC1=CN2CC(c3ccc(Br)cc3)N=C2S1 (stereo unspecified)	74.8 °C
Cn1nnnc1-c1cn(C)c2cc(N3CCOCC3)ccc2c1=O	235 to 238 °C
Nc1nc[nH]c1-c1n[nH]c(-c2ccc(-c3ccccc3)cc2)n1	230 °C
COc1ccc2c(c1)c(C1=C(c3cn(C)c4ccc(OC)cc34)C(=O)N(C)C1=O)cn2C	114 to 117 °C
CSc1nc(I)ncc1Br	72 to 76 °C
CCn1nnc(NC(=O)C(c2ccccc2)c2ccccc2)n1	169 to 170 °C
CCCCCC(=O)OCc1nccc(Oc2ccc3c(C(=O)OCC)csc3c2)n1	51 °C
CC(C)c1c(CO)c(-c2ccc(F)cc2)nn1-c1ccccc1	144 to 147 °C
Nc1cccc(-c2ccc(CCN3CC4C(N)C4C3)cc2)n1 (stereo unspecified)	187 to 190 °C
COc1ccc(C=CC(=O)c2c(OC)cc(OC)cc2OC(=O)c2ccc(OC)cc2OC)cc1	119 to 120 °C
CCOC(=O)C1=Cc2cc(C(=O)Cc3ccccc3)ccc2OC1C(F)(F)F (stereo unspecified)	136 to 138 °C
COc1ccc(S(=O)(=O)N2C(=O)[C@@](c3ccccc3OC)(N3C[C@H](OC(C)=O)C[C@H]3C(=O)N(C)C)c3cc(Cl)ccc32)c(OC)c1	194 to 195 °C
CCCCCCCCCCCCCCCCCCOc1cc(SC)cc(N(CC(=O)O)CC(=O)O)c1	129 to 130 °C
Cc1cc(CN2CC(=O)N(c3cnn(Cc4c(C)noc4C)c3)C2=O)n(C)n1	145 to 146 °C
CCN(O)Cc1nnc2n1-c1ccc(Cl)cc1C(c1ccccc1)=NC2	154 to 157 °C
COc1cccc(-c2cc(C(=O)NCCCCCCCCc3ccccc3)cc(-c3cccc(OC)c3OCC(=O)O)c2)c1	67.3 to 68.7 °C
O=c1[nH]nc(COc2ccccc2)s1	104 to 105 °C
COc1ccc(NC2C=CC3=Nc4ccccc4SC3=C2)cc1 (stereo unspecified)	135 to 136 °C
CC(C)N1C(=O)C(NC(=O)Cc2cc(Cl)cc(Cl)c2)C(=O)N(CC(F)(F)F)c2ccccc21 (stereo unspecified)	185 to 186 °C
COC(=O)[C@H](Cc1ccc([N+](=O)[O-])cc1)NC(=O)OC(C)(C)C	95 to 96 °C
COc1ccc2c(c1)CCC1C2CCC2(C)C(=O)CC(C(C)C)C12 (stereo unspecified)	104 to 108 °C

SMILES	melting point
Oc1ccccc1N1CCN(Cc2nc3ccccc3[nH]2)CC1	208 to 216 °C
CC(C)CC1(CC(=O)NO)C(=O)N(CCc2ccccc2)C(=O)N1C (stereo unspecified)	127 to 129 °C
N#Cc1cc(Oc2ccccc2)ccc1O	112 to 114 °C
CCCn1c(=S)nc(NCc2ccncc2)c2[nH]c(C3CC3)nc21	204 to 210 °C
CC(C)C1C(O)=CC(=O)N1c1ccc(C#N)c(Cl)c1 (stereo unspecified)	217 to 219 °C
CCOC(=O)c1[nH]c(C)c(C)c1CC	95 to 97 °C
CC(C)(C)c1ccc(OP(Oc2ccc(C(C)(C)C)cc2C(C)(C)C)c2cccc3ccccc23)c(C(C)(C)C)c1	125 to 127 °C
O=S1(=O)NN=Cc2ccsc21	125 to 127 °C
O=Cc1ccc(C#Cc2cc3ncnc(Nc4ccc(OCc5cccc(F)c5)c(Cl)c4)c3s2)o1	229 °C
O=C(Nc1cccnc1)N1CCc2cc(Cl)ccc21	204 to 205 °C
CC(=O)Oc1c(C)cc(C(=O)Nc2c(CO)nc3c(C)cc(C)cc3c2-c2ccccc2Cl)cc1C	134 to 136 °C
C[Si](C)(C)C1=C(c2ccccc2)C(c2ccccc2)=C([Si](C)(C)C)[Si]1(C)C	100 °C
O=C(CCl)NC(c1ccccc1)C(O)c1ccccc1 (stereo unspecified)	166 to 169 °C
O=C(O)c1cccc(Oc2ccc(C(F)(F)F)c(Cl)c2)c1	90 to 91 °C
CCCCc1nc2c(N)nc3ccccc3c2n1CCCCC(N)=O	219 to 221 °C
COc1ccc(SC2CC(=O)N2)cc1OC (stereo unspecified)	145 to 146 °C
CN(C)c1ccc(NC(=O)N(Cc2ccco2)C[C@H]2CCCC[C@H]2CN(Cc2ccco2)C(=O)Nc2ccc(N(C)C)cc2)cc1	106 to 110 °C
C=CCN1C2CCC1C1CCC2N1C(c1ccc(C(=O)N2CCCCC2)cc1)c1cccc(O)c1 (stereo unspecified)	133 to 135 °C
CCCCCCCNC(=O)Nc1ccc(-n2cccn2)cc1C(=O)NCC1CCN(C(c2ccccc2)c2ccccc2)CC1	176 to 178 °C
O=C1COC(C#CC2CC2)(C(F)(F)F)c2cc(Cl)ccc2N1 (stereo unspecified)	200 °C
COc1cc(Cc2cnc(N)nc2N)cc(OC)c1-n1cccc1	220 °C
Cc1nnsc1C(=O)c1[nH]c2cc(Cl)ccc2c1CC(=O)O	215 to 216 °C
CC(=O)SC1NC(=O)C1Cc1ccccc1 (stereo unspecified)	42 to 43 °C
NS(=O)(=O)c1cc(CCNC(=O)c2cnc3ccccc3c2)ccc1OCCOCC(F)(F)F	206 to 210 °C
CC(C)(CO)Nc1nc(SCc2cccc(F)c2F)nc2nc(N)sc12	231 to 234 °C
CCN(CC)CCCNC(=O)c1ccc(S(N)(=O)=O)cc1	122 to 123 °C

SMILES	melting point
CC(C)C(=O)N[C@@H](CS)C(=O)NCCSC(=O)C(C)C	125 to 127 °C
CC1(C)COP(N(C2CC(C)(C)NC(C)(C)C2)C2CC(C)(C)NC(C)(C)C2)OC1	156 °C
COc1ccc2[nH]c(S(=O)Cc3cc(N(C)C)ncn3)nc2c1 (stereo unspecified)	104 to 106 °C
CN1Cc2c(-c3nc(C4CC4)no3)ncn2-c2ccc(F)cc2C1=O	216 to 217 °C
CCCc1nnc2ccc(-c3ccc(C(F)(F)F)cc3)nn12	173 to 175 °C
CC(C)n1nc(-c2cnc(N)nc2-c2ccco2)ccc1=O	215 °C
COc1cc(CNc2nc(N)n3nc(-c4ccco4)nc3n2)cc(OC)c1OC	221 to 224 °C
CCCCOc1ccc(C(=O)Nc2ccc3cc(CN4CCN(C)CC4)cnc3c2C)c(F)c1	155 °C
Cc1cc(C(C)(C)C)c(O)c(P(=O)(c2ccccc2)C2c3ccccc3-c3ccccc32)c1 (stereo unspecified)	237 to 240 °C
CC(C)(C)OC(=O)NCC1CC(ON2C(=O)c3ccccc3C2=O)C1 (stereo unspecified)	145 to 150 °C
O=C1Nc2ccc(Br)cc2C12CCCCC2	196 to 199 °C
O=C(O)c1cc2c(s1)S(=O)(=O)CC2	227 to 230 °C
O=c1cc(Br)ccn1C1CC1	91 to 94 °C
O=Cc1ccc(-c2ccc(C(F)(F)F)cc2)cc1	70 °C
Cc1cc(=O)c(C(=O)O)c(C)n1C1CC(C)(C)NC(C)(C)C1	174 °C
O=C1C(=O)N2c3ccccc3Sc3cccc1c32	203 to 206 °C
COc1ccc2c(=O)c(-c3ccc(OCC(O)CNC4CCCCC4)cc3)coc2c1 (stereo unspecified)	125 to 126 °C
Cc1nc(Cl)c2cc3c(cc2n1)OCCO3	168 to 170 °C
CCC1CSC(CCc2ccccc2)(Cn2ccnc2)S1 (stereo unspecified)	115 to 118 °C
Cc1ccc2c(Sc3cc(Cl)cc(Cl)c3)c(CCC(N)=O)[nH]c2c1	152 °C
CN(C(=O)CCCOc1ccc2nc3n(c(=O)c2c1)CC(=O)N3)C1CCCCC1	200 to 202 °C
O=C(C=Cc1ccc(Cl)cc1)NC1CCCNC(=O)C1 (stereo unspecified)	256 to 257 °C
CN1CCN(c2ncnc3oc(C4=CC=CN(N5CCOCC5)C4)c(-c4ccccc4)c23)CC1	255 to 257 °C
